Source: patent publication US12605423B2, “Peptide inhibitors targeting methyltransfer mechanism of SARS-CoV-2” (United Arab Emirates University, priority 2021, dated 2026)
In brackets after ≈: the same amount, converted by molar mass. Entries after “also recorded” stand apart in the source; their conditions may differ.

Assays:
IL-6 = format: cell-based; details: 10 μM peptide, versus PBS control; for IL-6 induction: NCIH1792 (H1792) human lung cells
in vitro = details: human, Cytotoxic Concentration (CC50), Caco-2 cells

Row | Compound | stimulation of the intrinsic secretion of IL-6 (IL-6; NCIH1792 (H1792) cells) | IL-6 induction (IL-6) | CC50 (in vitro) [µg/mL]
1 | CC[C@H](C)[C@H](NC(=O)[C@H](Cc1c[nH]cn1)NC(=O)[C@H](CS)NC(=O)[C@H](CCCNC(=N)N)NC(=O)[C@H](CS)NC(=O)[C@H](Cc1ccc(O)cc1)NC(=O)[C@H](CC(C)C)NC(=O)[C@H](CS)NC(=O)[C@H](CS)NC(=O)[C@H](CO)NC(=O)[C@H](C)NC(=O)CNC(=O)CNC(=O)[C@H](Cc1ccccc1)NC(=O)CNC(=O)[C@H](CO)NC(=O)CNC(=O)[C@H](CCCNC(=N)N)NC(=O)[C@H](CCCNC(=N)N)NC(=O)[C@H](CCCNC(=N)N)NC(=O)[C@H](CCC(N)=O)NC(=O)[C@H](CCCNC(=N)N)NC(=O)[C@H](CCCNC(=N)N)NC(=O)[C@H](CCCCN)NC(=O)[C@H](CCCCN)NC(=O)[C@H](CCCNC(=N)N)NC(=O)CNC(=O)[C@H](Cc1ccc(O)cc1)NC(C)=O)C(=O)N[C@@H](CC(=O)O)C(=O)N[C@@H](Cc1c[nH]cn1)C(=O)N1CCC[C@H]1C(=O)N[C@@H](CC(N)=O)C(=O)N1CCC[C@H]1C(=O)N[C@@H](CCCCN)C(=O)NCC(=O)N[C@@H](Cc1ccccc1)C(=O)N[C@@H](CS)C(=O)N[C@@H](CC(=O)O)C(=O)N[C@@H](CC(C)C)C(=O)N[C@@H](CCCCN)C(=O)NCC(=O)N[C@@H](CCCCN)C(=O)N[C@@H](Cc1ccc(O)cc1)C(N)=O [Peptide P1] | more than 4 fold | strongly increased IL-6 secretion; also recorded: profound induction of IL-6 secretion | 11 (≈ 2.19 µM)
2 | YGRKKRRQRRRGSG [TAT sequence, reference compound] |  | no increase in IL-6 | 
